We go through 30 molecules from patent publication US20250346593A1, “IMIDAZO(1,2-1)PYRIDINE DERIVATIVES AS RIPK2 INHIBITORS” (Interline Therapeutics, Inc., priority 2022, published 2025).

Read-outs that look alike come from different tables or passages of the source.

The subject of experiment [1] is NF-κB pathway (SEAP) in THP1-Dual cells. The experiment is described as follows: THP-1 Dual cell SEAP assay (L18-MDP stimulated). The note with it: Homo sapiens, THP1-Dual, read-out: NFkB THP1 IC50. It is filed as cell-based.
Experiment [2] deals with GST-RIPK2 fusion protein (human RIPK2 amino acids 1-310) (Homo sapiens (Human), UniProt O43353). The experiment is described as follows: RIPK2 binding competition assay (TR-FRET, Tracer 199). For orientation: TR-FRET usually uses a lanthanide donor and a delayed reading to cut background.
GST-RIPK2 fusion protein (human RIPK2 amino acids 1-310), sequence (O43353 1-310): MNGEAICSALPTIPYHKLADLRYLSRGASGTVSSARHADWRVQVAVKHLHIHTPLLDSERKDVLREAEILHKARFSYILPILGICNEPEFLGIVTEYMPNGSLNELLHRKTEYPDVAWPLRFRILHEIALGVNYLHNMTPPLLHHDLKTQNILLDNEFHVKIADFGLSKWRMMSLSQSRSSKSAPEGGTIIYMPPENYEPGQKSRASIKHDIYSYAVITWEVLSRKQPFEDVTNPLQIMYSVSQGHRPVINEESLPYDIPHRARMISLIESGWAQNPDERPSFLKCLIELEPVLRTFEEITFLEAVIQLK
[3] abbreviates: read-out: RIPK2 IC50, RIPK2 binding competition assay.

What is called IC50 is the point on the concentration scale where inhibition reaches its midpoint.

In the case of `COc1cc2ncc(-c3ccc(N)c(OC)c3F)n2cc1S(=O)(=O)C(C)(C)C` [Example 76, 4-(6-(tert-butylsulfonyl)-7-methoxyimidazo[1,2-a]pyridin-3-yl)-3-fluoro-2-methoxyaniline], the concentration for half-maximal inhibition (IC50) in experiment [1] was greater than 1000 nM; in experiment [2] (setting [3]) it was greater than 20 nM.

In the case of `CCOc1cc2ncc(-c3cc(F)nc(NCCC(O)CC)c3)n2cc1S(=O)(=O)C(C)C` (racemic) [Example 246, Rac-1-({4-[7-ethoxy-6-(propane-2-sulfonyl)imidazo[1,2-a]pyridin-3-yl]-6-fluoropyridin-2-yl}amino)pentan-3-ol], the figures for the IC50 in experiment [1] and in experiment [2] were less than 50 nM and less than 1 nM, respectively.

With `COc1cc2ncc(-c3cc(F)c(OC)c(N)c3F)n2cc1S(=O)(=O)C(C)(C)C` [Example 52, 3-(6-(tert-butylsulfonyl)-7-methoxyimidazo[1,2-a]pyridin-3-yl)-2,5-difluoro-6-methoxyaniline], the IC50 in experiment [1] was 250 to 1000 nM; in experiment [2] it was 2.5 to 20 nM.

Consider `COc1cc2ncc(-c3cnc(N)c(C(F)(F)F)c3)n2cc1S(=O)(=O)C(C)(C)C` [Example 19, 5-(6-(tert-butylsulfonyl)-7-methoxyimidazo[1,2-a]pyridin-3-yl)-3-(trifluoromethyl)pyridin-2-amine], for which the results for the IC50 in experiment [1] and in experiment [2] (setting [3]) were greater than 1000 nM and greater than 20 nM, respectively.

With `COc1cc2ncc(-c3cc(N)c(OC)c(OC)c3)n2cc1S(=O)(=O)C(C)(C)C` [Example 47, 5-(6-(tert-butylsulfonyl)-7-methoxyimidazo[1,2-a]pyridin-3-yl)-2,3-dimethoxyaniline], the results for the IC50 in experiment [1] and in experiment [2] were greater than 1000 nM and 2.5 to 20 nM, respectively.

`COc1cc2ncc(-c3cc(F)nc(N4CCOCC4)c3)n2cc1S(=O)(=O)C(C)(C)C` [Example 211, 4-(4-(6-(tert-butylsulfonyl)-7-methoxyimidazo[1,2-a]pyridin-3-yl)-6-fluoropyridin-2-yl)morpholine]: the values for the IC50 in experiment [1] and in experiment [2] were 250 to 1000 nM and 2.5 to 20 nM, respectively.

In the case of `COc1cc2ncc(-c3cc(Cl)nc(Cl)c3)n2cc1S(=O)(=O)C(C)(C)C` [Example 8, 6-(tert-butylsulfonyl)-3-(2,6-dichloropyridin-4-yl)-7-methoxyimidazo[1,2-a]pyridine], the IC50 was greater than 1000 nM in experiment [1] and greater than 20 nM in experiment [2] (setting [3]).

As for `COc1cc2ncc(-c3cc(F)nc(NC4CCC4)c3)n2cc1S(=O)(=O)C(C)(C)C` [Example 180, 4-(6-(tert-butylsulfonyl)-7-methoxyimidazo[1,2-a]pyridin-3-yl)-N-cyclobutyl-6-fluoropyridin-2-amine], the IC50 was 50 to 250 nM in experiment [1] and less than 1 nM in experiment [2] (setting [3]).

`COc1cc2ncc(-c3ccc(N)nc3Cl)n2cc1S(=O)(=O)C(C)(C)C` [Example 99, 5-(6-(tert-butylsulfonyl)-7-methoxyimidazo[1,2-a]pyridin-3-yl)-6-chloropyridin-2-amine]: the IC50 in experiment [1] was greater than 1000 nM; in experiment [2] (setting [3]) it was greater than 20 nM.

In the case of `COc1cc2ncc(-c3cc(F)c(N)nc3OC)n2cc1S(=O)(=O)C(C)(C)C` [Example 106, 5-(6-(tert-butylsulfonyl)-7-methoxyimidazo[1,2-a]pyridin-3-yl)-3-fluoro-6-methoxypyridin-2-amine], the IC50 in experiment [1] is 250 to 1000 nM; in experiment [2], 2.5 to 20 nM.

`COc1cc2ncc(-c3cc(F)c(N)nc3F)n2cc1S(=O)(=O)C(C)(C)C(F)F` [Example 154, 5-(6-((1,1-difluoro-2-methylpropan-2-yl)sulfonyl)-7-methoxyimidazo[1,2-a]pyridin-3-yl)-3,6-difluoropyridin-2-amine]: the figures for the IC50 in experiment [1] and in experiment [2] were 50 to 250 nM and 2.5 to 20 nM, respectively.

Regarding `COc1cc(N)ncc1-c1cnc2cc(OC)c(S(=O)(=O)C(C)(C)C)cn12` [Example 78, 5-(6-(tert-butylsulfonyl)-7-methoxyimidazo[1,2-a]pyridin-3-yl)-4-methoxypyridin-2-amine], the IC50 was greater than 1000 nM in experiment [1] and greater than 20 nM in experiment [2] (setting [3]).

Regarding `COc1cc2ncc(-c3cc(NCCCO)ncc3C)n2cc1S(=O)(=O)C(C)(C)C` [Example 309, 3-({4-[7-Methoxy-6-(2-methylpropane-2-sulfonyl)imidazo[1,2-a]pyridin-3-yl]-5-methylpyridin-2-yl}amino)propan-1-ol], the IC50 in experiment [1] is greater than 1000 nM; in experiment [2] (setting [3]), greater than 20 nM.

Turning to `COc1ccc(CNc2cc(-c3cnc4ccc(S(=O)(=O)C(C)(C)C)cn34)cc(F)n2)cc1` [Example 168, 4-(6-(tert-butylsulfonyl)imidazo[1,2-a]pyridin-3-yl)-6-fluoro-N-(4-methoxybenzyl)pyridin-2-amine], the IC50 in experiment [1] is 250 to 1000 nM; in experiment [2], 1 to 2.5 nM.

For the molecule `CCCS(=O)(=O)Nc1cc(-c2cnc3cc(OC)c(S(=O)(=O)C(C)(C)C)cn23)cc(OC)c1F` [Example 267, N-(5-(6-(tert-butylsulfonyl)-7-methoxyimidazo[1,2-a]pyridin-3-yl)-2-fluoro-3-methoxyphenyl)propane-1-sulfonamide], the IC50 in experiment [1] lay within 250 to 1000 nM; in experiment [2] it was 1 to 2.5 nM.

For the molecule `COc1cc2ncc(-c3cnc(N)c(Cl)c3)n2cc1S(=O)(=O)C(C)(C)C` [Example 22, 5-(6-(tert-butylsulfonyl)-7-methoxyimidazo[1,2-a]pyridin-3-yl)-3-chloropyridin-2-amine], the IC50 in experiment [1] is greater than 1000 nM; in experiment [2] it was 2.5 to 20 nM.

As to `COc1cc2ncc(-c3cc(N)c(=O)n(C)c3)n2cc1S(=O)(=O)C(C)(C)C` [Example 7, 3-amino-5-(6-(tert-butylsulfonyl)-7-methoxyimidazo[1,2-a]pyridin-3-yl)-1-methylpyridin-2(1H)-one], the IC50 lay within 250 to 1000 nM in experiment [1] and 2.5 to 20 nM in experiment [2].

Consider `COc1cc2ncc(-c3cc(F)nc(NCCO)c3)n2cc1S(=O)(=O)C(C)(C)C` [Example 202, 2-((4-(6-(tert-butylsulfonyl)-7-methoxyimidazo[1,2-a]pyridin-3-yl)-6-fluoropyridin-2-yl)amino)ethan-1-ol], for which the IC50 is less than 50 nM in experiment [1] and 1 to 2.5 nM in experiment [2].

For `COc1cc2ncc(-c3cc(F)c(OC)c(NS(=O)(=O)CC(C)C)c3)n2cc1S(=O)(=O)C(C)(C)C` [Example 279, N-(5-(6-(tert-butylsulfonyl)-7-methoxyimidazo[1,2-a]pyridin-3-yl)-3-fluoro-2-methoxyphenyl)-2-methylpropane-1-sulfonamide], the IC50 in experiment [1] was less than 50 nM; in experiment [2], less than 1 nM.

Take `CCOc1cc2ncc(-c3cc(Cl)c(N)nc3F)n2cc1S(=O)(=O)C(C)C` [Example 118, 3-chloro-5-[6-ethoxy-5-(isopropylsulfonyl)-1,3a-diaza-3-indenyl]-6-fluoro-2-pyridylamine]: the half-inhibitory concentration (IC50) in experiment [1] was 250 to 1000 nM; in experiment [2] it was 2.5 to 20 nM.

In the case of `COc1cc2ncc(-c3cc(F)c(N)nc3O)n2cc1S(=O)(=O)C(C)(C)C` [Example 167, 6-amino-3-(6-(tert-butylsulfonyl)-7-methoxyimidazo[1,2-a]pyridin-3-yl)-5-fluoropyridin-2-ol], the IC50 was greater than 1000 nM in experiment [1] and greater than 20 nM in experiment [2] (setting [3]).

For `COc1cc2ncc(-c3cc(F)nc(NCCC(C)(C)OC)c3)n2cc1S(=O)(=O)C(C)(C)C` [Example 176, 4-(6-(tert-butylsulfonyl)-7-methoxyimidazo[1,2-a]pyridin-3-yl)-6-fluoro-N-(3-methoxy-3-methylbutyl)pyridin-2-amine], the IC50 is less than 50 nM in experiment [1] and less than 1 nM in experiment [2] (setting [3]).

For the molecule `CCCS(=O)(=O)Nc1c(F)ccc(-c2cnc3cc(OC)c(S(=O)(=O)C(C)(C)C)cn23)c1F` [Example 255, N-(3-(6-(tert-butylsulfonyl)-7-methoxyimidazo[1,2-a]pyridin-3-yl)-2,6-difluorophenyl)propane-1-sulfonamide], the half-maximal inhibitory concentration (IC50) in experiment [1] was greater than 1000 nM; in experiment [2], greater than 20 nM.

On to `COc1cc(-c2cnc3cc(OC)c(S(=O)(=O)C(C)(C)C)cn23)cc(N)n1` [Example 53, 4-(6-(tert-butylsulfonyl)-7-methoxyimidazo[1,2-a]pyridin-3-yl)-6-methoxypyridin-2-amine], for which the IC50 in experiment [1] lay within 50 to 250 nM; in experiment [2] it was 2.5 to 20 nM.

Turning to `COc1cc2ncc(-c3cc(F)nc(NCc4cc[nH]c(=O)c4)c3)n2cc1S(=O)(=O)C(C)(C)C` [Example 199, 4-(((4-(6-(tert-butylsulfonyl)-7-methoxyimidazo[1,2-a]pyridin-3-yl)-6-fluoropyridin-2-yl)amino)methyl) pyridin-2(1H)-one], the IC50 in experiment [1] was in the range of 50 to 250 nM; in experiment [2] it was 1 to 2.5 nM.

Take `COc1cc2ncc(-c3cc(F)nc(NC[C@@H]4CCNC(=O)C4)c3)n2cc1S(=O)(=O)C(C)(C)C` (single isomer, unassigned) [Example 238, (4R or S)-4-[({6-fluoro-4-[7-methoxy-6-(2-methylpropane-2-sulfonyl)imidazo[1,2-a]pyridin-3-yl]pyridin-2-yl}amino)methyl]pi peridin-2-one]: the IC50 in experiment [1] fell in the range of 50 to 250 nM; in experiment [2] it was 1 to 2.5 nM.

With `COc1cc2ncc(-c3ccc(N)cn3)n2cc1S(=O)(=O)C(C)(C)C` [Example 71, 6-(6-(tert-butylsulfonyl)-7-methoxyimidazo[1,2-a]pyridin-3-yl)pyridin-3-amine], the figures for the IC50 in experiment [1] and in experiment [2] (setting [3]) were greater than 1000 nM and greater than 20 nM, respectively.

Regarding `COc1cc2ncc(-c3cc(F)c(OCCO)c(Br)c3)n2cc1S(=O)(=O)C(C)(C)C` [Example 306, 2-(2-bromo-4-(6-(tert-butylsulfonyl)-7-methoxyimidazo[1,2-a]pyridin-3-yl)-6-fluorophenoxy)ethan-1-ol], the half-inhibitory concentration (IC50) lay in the range of 50 to 250 nM in experiment [1] and 2.5 to 20 nM in experiment [2].

As to `CCCS(=O)(=O)Nc1cccc(-c2cnc3cc(OC)c(S(=O)(=O)C(C)(C)C)cn23)c1F` [Example 258, N-(3-(6-(tert-butylsulfonyl)-7-methoxyimidazo[1,2-a]pyridin-3-yl)-2-fluorophenyl)propane-1-sulfonamide], the IC50 in experiment [1] was greater than 1000 nM; in experiment [2] (setting [3]), greater than 20 nM.

As to `COc1cc(-c2cnc3cc(OC)c(S(=O)(=O)C(C)(C)C)cn23)cc(F)n1` [Example 302, 6-(tert-butylsulfonyl)-3-(2-fluoro-6-methoxypyridin-4-yl)-7-methoxyimidazo[1,2-a]pyridine], the IC50 in experiment [1] lay in the range of 250 to 1000 nM; in experiment [2] it was 2.5 to 20 nM.
